Experimental data published in patent US20030032640A1, “Novel composition” (priority 2000, published 2003).
Where a name gives a salt, the structure may show the parent alone. Values belong to the compound of their own block, whether it stands above or below them.

Assays:
[1] = target: 5HT4 receptor (Homo sapiens, UniProt Q13639); conditions: from the cited literature; cited from earlier work
[2] = Cohesiveness and flowability of drug substance and granules; format: physicochemical; conditions: HCl salt crystallised from ethanol/IMS with C5-C10 hydrocarbon
Text: The second aspect of the newly recognised problem, is the discovery that the SB 207266 HCl salt produced by these processes is very cohesive and has poor flowability/flow characteristics.

[3] = Particle size (DV 90/50/10) of batches of SB-207266-A made by the Description 1 process; format: physicochemical; conditions: for DV 10 / DV 50 / DV 90: individual batch, hydrochloride; for DV 10: 10% by volume of the material is less than this size; for DV 50: 50% by volume of the material is less than this size; for DV 90: 90% by volume of the material is less than this size
Text: The first aspect of the newly recognised problem is that such processes produce the SB 207266 hydrochloride salt in the form of particles of extremely small particle size.
DV 90, DV 50 and DV 10 respectively mean that 90%, 50% and 10% by volume of the material is less than the micron size specified.

[4] = Bulk density of the small-particle size HCl salt; format: physicochemical; conditions: densifies on addition of water
Text: The fourth aspect of the newly recognised problem is that the small-particle size SB-207266 HCl salt has a low bulk density, densifying on the addition of water. This means that less material can be added to a mixer of fixed volume, leading to a less efficient manufacturing process as large volumes of equipment have to be used for relatively small volumes of drug (smaller throughput in plant).

Sequence of 5HT4 receptor (Q13639 whole entry): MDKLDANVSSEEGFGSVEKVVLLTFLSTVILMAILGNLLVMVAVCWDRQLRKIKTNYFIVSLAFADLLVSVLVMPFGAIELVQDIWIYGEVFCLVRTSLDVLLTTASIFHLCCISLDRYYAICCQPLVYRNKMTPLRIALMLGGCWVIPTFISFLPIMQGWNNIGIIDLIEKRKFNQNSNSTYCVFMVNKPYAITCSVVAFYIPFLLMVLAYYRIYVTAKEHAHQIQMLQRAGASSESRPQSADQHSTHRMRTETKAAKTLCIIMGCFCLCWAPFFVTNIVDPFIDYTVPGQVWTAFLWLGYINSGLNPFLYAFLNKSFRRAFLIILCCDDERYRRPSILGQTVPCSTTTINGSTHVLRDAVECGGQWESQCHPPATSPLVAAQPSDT

Structure (SMILES): CCCCN1CCC(CNC(=O)c2c3n(c4ccccc24)CCCO3)CC1 [SB 207266, N-[(1-^nbutyl-4-piperidinyl)methyl]-3,4-dihydro-2H-[1,3]oxazino[3,2-a]indole-10-carboxamide]
selectivity for the 5HT4 receptor over other 5HT receptors [1]: highly selective

cohesiveness [2]: very cohesive
flowability/flow characteristics [2]: poor
DV 10, average of batches ([3]; average of the five batches): 1.5 μm
DV 50, average of batches ([3]; average of the five batches): 5.8 μm
DV 90, average of batches ([3]; average of the five batches): 14.4 μm
DV 10 ([3]; listed as BDC-G-02C): 1.5 μm
DV 10 ([3]; listed as BDC-G-03C): 1.8 μm
DV 10 ([3]; listed as BDC-G-04C): 1.4 μm
DV 10 ([3]; listed as BDC-G-05C): 1.5 μm
DV 10 ([3]; listed as BDC-H-01C): 1.4 μm
DV 50 ([3]; listed as BDC-G-02C): 5.7 μm
DV 50 ([3]; listed as BDC-G-03C): 6.8 μm
DV 50 ([3]; listed as BDC-G-04C): 5.3 μm
DV 50 ([3]; listed as BDC-G-05C): 5.8 μm
DV 50 ([3]; listed as BDC-H-01C): 5.3 μm
DV 90 ([3]; listed as BDC-G-02C): 13.8 μm
DV 90 ([3]; listed as BDC-G-03C): 16.4 μm
DV 90 ([3]; listed as BDC-G-04C): 14.4 μm
DV 90 ([3]; listed as BDC-G-05C): 14.6 μm
DV 90 ([3]; listed as BDC-H-01C): 12.8 μm
bulk density [4]: low
Structure (SMILES): CCCCN1CCC(CNC(=O)c2c3n(c4ccccc24)CCCO3)CC1 [SB-207266-A, N-[(1-butyl-4-piperidinyl)methyl]-3,4-dihydro-2H-[1,3]-oxazino[3,2-α]indole-10-carboxamide hydrochloride]
